In US6365634B1, “Naturally occurring compounds and their derivatives as cyclooxygenase 2 and/or 5-lipoxygenase inhibitors” (C-P Technology Limited Partnership, priority 1997, dated 2002):

How the values were obtained:
[1] = tested on: human keratinocyte PGE2 production; assay: Cell-based COX II assay: PGE2 production by cultured human foreskin keratinocytes (enzyme immunoassay); conditions: 5, 1.0, 0.2 and 0.04 uM, 24 hours, high calcium medium
Method: The ability of dehydroabietic acid methyl ester to inhibit the enzymatic activities of COX II and 5-LO was tested using primary cultures of human foreskin keratinocytes. Briefly, human keratinocytes were plated in 48-well plates (Nunc) at an initial density of 2.5×10^4 cells per well. The cultures were maintained in medium 154XP (Cascade Biologics) to which human keratinocyte growth supplement (Cascade Biologics) was added. Cultures were plated initially in medium 154XP containing 0.07 mM CaCl2. Upon reaching […] confluency, the media was exchanged with high calcium medium 154XP containing 1.2 mM CaCl2. Previous studies have shown that an increase in extracellular Ca^2+concentration induces the differentiation of cultured keratinocytes with a concomitant increase in the expression of COX II protein and COX II mRNA with no apparent effect on COX I expression (Leong, J., Hughes-Fulford, M., Rakhlin, A., Maclouf, J., and Goldyne, M., (1996), Exp. Cell Res., V224, p79). Twenty-four hours after switching to the high calcium media, duplicate wells were treated with dehydroabietic acid methyl ester serially diluted in ethanol to produce final concentrations of 5, 1.0, 0.2, and 0.04 uM. Companion cultures were treated with an identical dilution series of the Merck COX II-specific inhibitor DFU. Twenty-four hours later, samples were removed from each treated well (as well as vehicle-treated control wells) and the amount of PGE2 (a product of the COX II pathway) was quantified using a PGE2-specific enzyme immunoassay (Cayman Chemical). ), As was done with the previously described biochemical assays (COX I, COX II, 5-LO, and 15-LO), the percent inhibition was calculated based on a comparison between vehicle treated control cultures and cultures treated with dehydroabietic acid methyl ester or DFU (see Fractionation and Bioassay Analysis of Fractions Derived from Extract-8 above).
The ability of 4-cumylphenol to inhibit the enzymatic activity of COX II was tested using primary cultures of human foreskin keratinocytes. These cell studies were performed in an identical manner to the studies described in Example 6. […] Twenty-four hours later, samples were removed from each treated well (as well as vehicle-treated control wells) and the amount of PGE2 (a product of the COX II pathway) was quantified using a PGE2-specific enzyme immunoassay (Cayman Chemical). ), as was done with the previously described COX I, COX II, and 15-LO biochemical assays (see Example 2B). The percent inhibition was calculated based on a comparison between vehicle treated control cultures and cultures treated with 4-cumylphenol or DFU. […]
To evaluate the biological activities of 3-methoxy aniline, sufficient quantities of the compound were synthesized as detailed in Example 1C (above). […]

human recombinant COX II = biological target: T1, human recombinant COX II (Homo sapiens, UniProt P35354); assay: COX II biochemical assay (3H-arachidonic acid conversion, TLC quantitation); conditions: read-out: Percent Inhibition of COX II
T1 construct: purchased Oxford Chemical
T1 sequence (P35354 18-604): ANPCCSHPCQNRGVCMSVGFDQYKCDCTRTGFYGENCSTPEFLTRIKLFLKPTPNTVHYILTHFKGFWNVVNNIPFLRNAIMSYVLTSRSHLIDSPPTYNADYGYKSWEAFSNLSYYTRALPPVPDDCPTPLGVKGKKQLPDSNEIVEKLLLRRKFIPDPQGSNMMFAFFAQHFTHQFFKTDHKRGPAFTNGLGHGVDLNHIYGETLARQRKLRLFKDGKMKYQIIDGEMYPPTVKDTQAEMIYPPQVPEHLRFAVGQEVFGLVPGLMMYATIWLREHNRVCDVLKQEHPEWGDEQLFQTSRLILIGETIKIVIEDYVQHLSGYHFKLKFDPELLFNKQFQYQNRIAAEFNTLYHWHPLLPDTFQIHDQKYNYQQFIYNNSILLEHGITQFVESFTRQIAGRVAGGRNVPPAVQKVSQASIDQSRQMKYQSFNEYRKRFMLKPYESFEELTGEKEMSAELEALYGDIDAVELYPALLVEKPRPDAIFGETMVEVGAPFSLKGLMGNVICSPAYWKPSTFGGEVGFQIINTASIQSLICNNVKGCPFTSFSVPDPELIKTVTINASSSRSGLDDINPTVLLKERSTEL
Method: Two units of recombinant COX II enzyme (corresponding to 0.8 ug total protein) was added followed by 5 uL aliquots of the peat bog extracts yielding a final concentration of the peat extracts of 25 ug/ml. All samples were run in duplicate. […] Reactions were initiated by the addition of ^3H-arachidonic acid (DuPont-NEN) at a final concentration of 50 uM. The reactions were maintained for 5 minutes at 37° C. and stopped by the addition of ice-cold methanol/acetic acid (10:1 v/v).
The assessment of cyclooxygenase activity (both COX I and II) in the presence and absence of the peat bog extracts was based on the quantitation of tlhe radiolabeled arachidonic acid metabolites prostaglandin A2 (PGA2), PGE2, and PGF2-alpha. To do this, a 50 uL sample of each reaction solution was separated via TLC on LK6DF silica plates co-spotted with arachidonic acid, PGA2, and PGF2-alpha and developed in hexane/isopropyl alcohol/ acetic acid (85:15:1 v/v). The bands were visualized by UV-vis or I2 staining and scraped into scintillation vials for quantitation. […] The total enzyme activity (At), the corrected enzyme activity in the presence of an inhibitor (Ai), and % inhibition were calculated by the following equations:
3) Percent Inhibition=100 (1−Ai/ At)

[2] = tested on: human keratinocyte LTB4 production; assay: Cell-based 5-LO assay: LTB4 production by cultured human keratinocytes (enzyme immunoassay); conditions: 5, 1.0, 0.2 and 0.04 uM, 24 hours, high calcium medium
Text: In addition to assessing the effect of dehydroabietic acid methyl ester on the production of PGE2 by human keratinocytes, the human keratinocyte culture system was also used to assess for the inhibition of LTB4 production. Keratinocytes have not been used as extensively as other cell types for 5-LO studies, however, human keratinocytes produce appreciable amounts of LTB4 and production of this eicosanoid by cultured keratinocytes is inhibited by known inhibitors of 5-LO (see FIG. 11). To assess for inhibition of LTB4 production, human keratinocytes were cultured as described above. Following introduction of the high calcium media, the identical dilution series of dehydroabietic acid methyl ester as described above in the PGE2 study was added to duplicate wells of keratinocytes. Twenty-four hours later culture media samples were removed from each well and the amount of LTB4 in each sample determined using an enzyme immunoassay specific for LTB4 (Cayman Chemical). As was done with the PGE2 assay described above, the percent inhibition was calculated based on a comparison between vehicle treated control cultures and cultures treated with dehydroabietic acid methyl ester or Rev 5901 (a specific 5-LO inhibitor; Cayman Chemical).

human keratinocytes [3] = assay: Lactate dehydrogenase (LDH) release toxicity assay; assay type: cell-based; conditions: highest value of any culture treated with 5, 1.0, 0.2 or 0.04 uM
Method: To address the possibility that the inhibition of both PGE2 and LTB4 production by human keratinocytes treated with dehydroabietic acid methyl ester was […], a cell lactate dehydrogenase toxicity assay (Fisher Scientific) was performed. Briefly, lactate dehydrogenase (LDH) is found intracellularly and is released only in response to toxic stimuli and/or cell death. The amount of LDH released into the media of cultured cells is indicative of the degree of toxicity occurring in that culture. To do the assay, 48-well plates of cultured human keratinocytes (as described above for the PGE2 assay) were prepared and treated with the same concentrations of dehydroabietic acid methyl ester as described above for the PGE2 and LTB4 assays. One hour prior to harvesting culture media samples from wells treated with dehydroabietic acid methyl ester, duplicate wells were treated with a cell lysis buffer (Fisher Scientific) that caused 100% cell death to occur in the treated wells. After culture media samples were collected from all wells, the amount of LDH present in each was determined using a colorometric assay (Fisher Scientific). […] The amount of LDH released into the media of cultures treated with dehydroabietic acid methyl ester as well as vehicle-control media was determined using the colorometric assay and expressed as a percentage of that released by the 100% cell death wells.
To address the possibility that the inhibition of PGE2 production by human keratinocytes treated with 4-cumylphenol was due to toxicity, a cell lactate dehydrogenase toxicity assay (Fisher Scientific) was performed. […] After culture media samples were collected from all wells, the amount of LDH present in each was determined using a colorometric assay (Fisher Scientific). […] The amount of LDH released into the media of cultures treated with dehydroabietic acid methyl ester as well as vehicle-control media was determined using the colorometric assay and expressed as a percentage of that released by the 100% cell death wells. […]

human keratinocytes [4] = assay: Microscopic examination of treated keratinocyte cultures; assay type: cell-based

Which “inhibition of PGE2 production by cultured human keratinocytes” value [1] does the source give for CC1(C)OC(=O)C(c2cccc(F)c2)=C1c1ccc(S(C)(=O)=O)cc1 [DFU, reference compound] here?
Its value is “Dose-dependent inhibition”.

For CS(=O)(=O)Nc1ccc([N+](=O)[O-])cc1Oc1ccccc1 [Nimesulide, reference compound], which inhibition at 250 µM (human recombinant COX II) is on record?
Its inhibition at 250 µM is 13.3%.

With CCCCCC(O)c1cccc(OCc2ccc3ccccc3n2)c1 (stereo not drawn) [REV 5901, reference compound] as the compound, how does the “inhibition of LTB4 production by cultured human keratinocytes” value [2] read?
Its value is “dose-dependent inhibition”.

With COc1cccc(NC(=O)C(C)(C)C)c1 [Fraction 3-M-A, propanamide, N-(3-methoxyphenyl)2,2-dimethyl] as the compound, how does the “inhibition of PGE2 production by cultured human keratinocytes” value [1] read?
Its value is “inhibited the production of PGE2”.

And the “percent toxicity (LDH released) versus the 100% cell death control” value (human keratinocytes [3])?
Its value is at most 10%.

And the “toxicity when treated cultures were examined microscopically” value (human keratinocytes [4])?
The value was “lack of toxicity”.
